The source of these data is paper PMC6155746 (Molecules : A Journal of Synthetic Chemistry and Natural …, 2017).

Several values for one entry are separate records, joined by “and”; a condition that tells them apart may be missing. Equal values may be shown once. Read-outs that look alike come from different tables or passages of the source.

A short description of data set [1]: pKa determination via potentiometric analysis. Type of data set: physicochemical. The conditions noted are these: methanol/aqueous solution of ionic strength 0.02 M; Mean (±S.D.), potentiometric titration, triplicate; read-out: pKa1. The procedure:
The determination of pKa was undertaken as described by Babic A. et al.. Compound 1 was prepared by weighing 0.001 equivalents, which were dissolved in the minimum volume of methanol, to which aqueous solution with an ionic strength of 0.02 M was added to obtain a final concentration for Compound 1 of 0.006 M. It was titrated with NaOH 0.01 N, which had been previously evaluated with an ionic strength of 0.02 M using Logger Pro 3.5.0 software (Vernier Software & Technology, Beaverton, OR, USA). The study was conducted in triplicate, determining the final points using the criteria from the first and second derivative test.

Data set [2] is described as follows: Apparent partition coefficient (octanol-water log D, shake-flask). Format: physicochemical. The conditions noted are these: n-octanol/phosphate buffer. The procedure:
The octanol-water distribution coefficient was determined using the shake-flask method. The two phases were mutually saturated by shaking for 15 min. Phosphate buffers were used as the aqueous phase for the pH range 1.2 to 13. 5 mL portions of different buffer solutions (pH 1.2 to 13) containing 100 μg/mL of Compound 1 were mixed with 2.5 mL of n-Octanol. The mixture was shaken for 30 min, centrifuged at 8000× g for 10 min, after which the aqueous and organic phases were separated. Aqueous samples were analyzed at 222 nm using a validated spectrophotometric method (5–200 μg·mL^−1). The distribution coefficient (log D) was calculated according to Equation (1) for each pH value: (1) Log D=log[Compound]org/[Compound ]aq where [Compound]org is the drug concentration in the organic phase (determined by mass balance) and [Compound]aq is the drug concentration in the aqueous phase for each buffer solution. Every experiment was evaluated in triplicate.

Data set [3] is described as follows: Permeability assay, everted rat gut model. Format: in vitro ADME, Wistar rats. Particulars: for Papp at 120 min, 100 μM: male, Wistar, rat, everted rat gut, 37 °C, A-B. The protocol:
Male Wistar rats weighing 200–250 g were used in this research. Everted intestinal sacs were prepared by quickly removing the small intestine from starved rats killed under ether anesthesia. All experiments were carried out after pre-incubation at 37 ± 0.5 °C, with the duodenum and jejunum then excised, flushed-through several times with saline solution at room temperature, and placed immediately into simulated intestinal fluid (SIF). The intestine was gently everted over a steel rod and filled with fresh SIF. The sacs were preincubated in oxygenated buffer solution for 5 min and then placed in 100 mL of oxygenated SIF solution containing 0.0001 M (100 μM) of Compound 1 at 37 °C. Oxygen was bubbled with a pump to maintain viable tissue.
The everted intestinal sac was filled with 1.5 mL of SIF solution, while a test compound solution (0.0001 M) remained external to the everted sac. […] 300 μL samples were collected from inside the sac with a metallic cannula at 5, 10, 15, 30, 45, 60, 90, and 120 min (apical-basolateral transport A-B), after which a medium replacement was made. Both an initial and final sample of the outside solution were analyzed by HPLC.
The apparent intestinal permeability (Papp) was calculated according to Equation (2): (2) Papp=V/(A∗Co)dC/dt where Papp = Apparent Permeability (cm/s), V = Intestinal Volume (mL), A = Surface Area (cm^2), dC/dt = Concentration Gradient, and, Co = Initial Concentration (μg/mL).

A short description of data set [4]: Bioavailability / pharmacokinetic study, oral and intravenous administration. Format: in vivo, Wistar rats. On the set-up: average clearance (CL): unit not given here. The conditions noted are these: for half-life: read-out: T1/2el (converted). The protocol:
Male Wistar rats weighing 250–300 g were used for pharmacokinetic evaluation. Animals were individually identified by tail markings and acclimated to the study environment for seven days prior to the administration of the dose. Animals were kept on a 12 h light/dark cycle except when this was interrupted for study procedures. Animals were kept at average room temperature, which was regulated in the range of 18 to 29 °C. The animals were fasted prior to dose administration, and had access to water ad libitum.
Rats were anesthetized with ether and cannulated via the caudal vein using polyethylene tubing with an internal diameter of 0.023 inches, and an outer diameter of 0.038 inches (Becton Dickinson Clay Adams).
Compound 1 was prepared with Cremophore (10%) in physiologic saline solution and administered orally in a 50 mg/kg dose, and via intravenous bolus (50 mg/kg). Study was conducted in quintuplicate.
After dosing, serial blood samples were collected (0.2 mL) 0, 0.083, 0.16, 0.25, 0.33, 0.50, 0.75, 1.0, 1.5, 2.0, 3.0, 4.0, 6.0, and 8 h after both oral and intravenous administration using heparinized (20 UI) tubes, and were centrifuged at 5000× g for 10 min, with the plasma harvested and analyzed by HPLC using the previously validated method.
The pharmacokinetic parameters of Compound 1 were obtained via non-compartmental analysis using PK software (PKSolver). The STATA statistical program, version 12, was used for the comparison of the following: the pharmacokinetic parameters obtained via both administration pathways (Cmax and Tmax); the elimination rate constant (kel); the biological half-life; the area under the curve (AUC0–t); the area under the curve from zero to infinity (AUC0–∞); volume of distribution (Vd); clearance (Cl); and, absolute bioavailability (F).

Data set [5] has as its system 11β-hydroxysteroid dehydrogenase type 1 (11β-HSD1). On the set-up: method as in PMID 23597793. Particulars: at 10 μM, HEK293 cells; cited from earlier work.
The test system of data set [6] is plasma glucose levels. On the set-up: method as in PMID 23597793, PMID 23453304. Particulars: non-insulin dependent diabetes mellitus rat model, 7 h post-administration, Compound 1 at 50 mg/kg single dose; cited from earlier work.
The conditions of data set [7]: reported in the rat, oral; cited from earlier work.
The subject of data set [8] is rat. The conditions noted are these: in vivo, po; cited from earlier work.
The mark [9] stands for this setting: duodenum, read-out: Papp Duodenum.
[10] abbreviates: jejunum, read-out: Papp Jejunum.
[11] abbreviates: Compound 1, intravenous, 50 mg/kg, Wistar rat, mean.
Setting [12] is: Compound 1, oral, 50 mg/kg, Wistar rat, mean.
Where [13] appears, read: male, plasma, Compound 1, intravenous, 50 mg/kg, Wistar rat, mean.
Where [14] appears, read: male, plasma, Compound 1, oral, 50 mg/kg, Wistar rat, mean.

As a reminder, the Papp is the rate of passage across a membrane or cell layer, normalised by area and donor concentration. What is called bioavailability is the share of a dose that reaches the circulation, judged against a reference dose that is usually intravenous. Usually Cmax stands for the peak of the concentration-time curve. The term Tmax denotes the time at which the peak concentration occurs. Consider `CC(C)(Oc1ccc(Cl)cc1)C(=O)Nc1nnn[nH]1` [Compound 1, 2-(4-chlorophenoxy)-2-methyl-N-(1H-tetrazol-5-yl) propanamide], for which the pKa in data set [1] was determined as 4.43. For the same molecule, the “log D” value in data set [2] (pH 1 to 5) is on record as “positive”. In data set [2] (pH 7), the “Log D” value is “below zero”. Moreover, the permeability classification result in data set [3] (compared to the standards naproxen and amoxicillin) is on record as “low permeability”. Also, the apparent permeability (Papp) at 120 min, 100 μM in data set [3] (setting [9]) worked out at 8.73 ×10⁻⁶ cm/s. In data set [3] (setting [10]), the Papp at 120 min, 100 μM was found to be 16.2 ×10⁻⁶ cm/s. For the same molecule, the average ABC0–α in data set [4] (Compound 1, intravenous) worked out at 38800 ng·h/mL. Besides, in data set [4] (setting [11]), the “ABC0–t” value worked out at 30.5 μg/mL·h, the “ABC0–α” value is 38.8 μg/mL·h and the Cl stood at 484.5 mL/h. Moreover, in data set [4] (Compound 1, oral), the average ABC0–α turned out to be 2580 ng·h/mL and the “average clearance (CL)” value is reported as 751.2. In data set [4] (setting [12]), the “ABC0–t” value amounted to 2.37 μg/mL·h, the “ABC0–α” value amounted to 2.58 μg/mL·h, the Cl was 751.2 mL/h and the Ka was 3.05 h⁻¹. Further, in data set [4] (male, Wistar, rat, plasma, 50 mg/kg, Compound 1, intravenous, read-out: average clearance (CL) (converted)), the clearance is 8.07 mL/min. In data set [4] (male, Wistar, rat, plasma, iv, 50 mg/kg, Compound 1, intravenous, 50 mg/kg, Wistar rat, mean), the half-life is 42.6 min. The half-life in data set [4] (male, Wistar, rat, plasma, po, 50 mg/kg, Compound 1, oral, 50 mg/kg, Wistar rat, mean) is about 22.8 min. In addition, in data set [4] (setting [13]), the Vd was 0.4 L and 1.3 L/kg; the k el was 0.000336 s⁻¹. The bioavailability in data set [4] (male, plasma, Compound 1, oral vs intravenous, 50 mg/kg, Wistar rat, mean) was determined as 10.4%. For the same molecule, in data set [4] (setting [14]), the Cmax came to 3570 ng/mL, the Tmax turned out to be 19.8 min and the k el was 0.000503 s⁻¹. In addition, in data set [5], the “inhibition of 11β-HSD1” value is reported as 51.17%. Also, the “reduction in glucose levels in the plasma” value in data set [6] was “up to 77%”.

`COc1ccc(Cl)cc1C(=O)NCCc1ccc(S(=O)(=O)NC(=O)NC2CCCCC2)cc1` [glibenclamide, reference compound]: in data set [6], the “reduction in glucose levels in the plasma” value is listed as 40%.

Take `CC(C)(Oc1ccc(Cl)cc1)C(=O)O` [Compound 2, Clofibric acid]: the “average lifetime (half-life) of clofibric acid” value in data set [7] is 420 to 480 min. Besides, in data set [8], the DL50 was 940 mg/kg.

Turning to `CC1(C)S[C@@H]2[C@H](NC(=O)[C@H](N)c3ccc(O)cc3)C(=O)N2[C@H]1C(=O)O` [Amoxicillin, amoxicillin, reference compound], the Papp at 120 min, 100 μM came to 8.52 ×10⁻⁶ cm/s in data set [3] (setting [9]) and 10 ×10⁻⁶ cm/s in data set [3] (setting [10]).
